Patent publication EP4122467A1, “THX-B FOR TREATING AND PREVENTING CANCER AND METASTASIS” (Fundación del Sector Público Estatal Centro Nacional de …, priority 2021, dated 2023)
“Also recorded” adds a separate entry of the source.

Experiments:
proNGF/p75^NTR axis [1] = experiment: Bladder weight and morphology in diabetic voiding dysfunction model; type: in vivo, C57BL/6 female mice
Procedure: (§1) Animal housing and treatments All experiments received the ethical approval from the Lady Davis Institute Ethics Board (No. 7859), Montreal, Canada. Housing and handling conformed with the Canadian Council for Animal Care (CCAC). One hundred and forty four 9-week-old C57BL/6 female mice were kept on a 12 h light/dark cycle with free access to food (standard Purina chow, Teklad Global, Wl, USA) and water. Diabetes was induced by i.p. injection of streptozotocin (60 mg/kg in citrate buffer, 10 mmol/l, pH 4.5 on 5 consecutive days) after 4-5 h fasting. Fasting serum glucose (FSG) was checked after 5-7 days using a glucometer (Contour next EZ, Bayer, ON, Canada) from the tail. FSG above 14 mmol/l was considered diabetic. Mice were divided into four groups without pre-considering their weight changes or glucose levels (for diabetic groups): control (42 mice); untreated diabetic (hereafter referred to as Dm; 42 mice); anti-proNGF mAb-treated diabetic mice (30 mice); and small molecule p75^NTR antagonist (THX-B)-treated diabetic mice (30 mice). […] This inhibitor antagonises ligand-dependent p75^NTR functions and, different from other anti-NGF mAbs, it is free of the off-target side effects resulting from inhibiting TrkA. We have observed that the molecule is detectable in systemic circulation for 2 weeks. The THX-B small molecule ((1,3-diisopropyl-1-[2-(1,3-dimethyl-2,6-dioxo-1,2,3,6-tetrahydro-purin-7-yl)-acetyl]-urea); molecular mass […]) is a synthetic chemical with an estimated systemic circulation half-life in vivo of 6-8 h.
(§2) Without blinding, i.p. injections of the drug molecules or the vehicle (PBS) were given weekly for four weeks, starting after 2 weeks of diabetes confirmation. A single starting proNGF mAb i.p. injection of 100 µg/mouse in 150 µl PBS was followed by 60 µg/mouse in 100µl PBS for the following three injections. THX-B was injected i.p. at a weekly dose of 50 µg/mouse in 125 µl PBS. Experimental time points (to carry out cystometry, contractility, protein extraction and histology) were baseline (two weeks after diabetes diagnosis included control and Dm groups only), week 2 after treatment (following 2 injection cycles) and week 4 after treatment (following 4 injection cycles). Body weight was measured weekly and FSG fortnightly for all groups. Six mice from each group were kept for another 2 weeks after the end of the study duration to observe the washout/prolonged effect of the molecules.

proNGF/p75^NTR axis [2] = experiment: Bladder contractility in diabetic voiding dysfunction model; type: in vivo, C57BL/6 female mice; conditions: compared with Dm, week as printed in the cell
Procedure: as §1
Without blinding, i.p. injections of the drug molecules or the vehicle (PBS) were given weekly for four weeks, starting after 2 weeks of diabetes confirmation. A single starting proNGF mAb i.p. injection of 100 µg/mouse in 150 µl PBS was followed by 60 µg/mouse in 100µl PBS for the following three injections. THX-B was injected i.p. at a weekly dose of 50 µg/mouse in 125 µl PBS. […] Body weight was measured weekly and FSG fortnightly for all groups. […]

[3] = Drug levels and tissue distribution after intraperitoneal and oral administration; type: in vivo, mice
Procedure: In lymph nodes compound was detected at 8 hours with a concentration of 9 ng/ml.

mouse melanoma cells = experiment: Spontaneous metastasis model, mouse melanoma cells injected subcutaneously (Figure 1); type: in vivo, c57/BL6 mice
Procedure: • Figure 1. NGFR inhibition by THX-B reduces melanoma spontaneous metastasis. A-B) 200.000 lymph node metastatic mouse melanoma cells were subcutaneously in c57/BL6 mice. Animals were treated intra-peritoneally with THX-B (4 mg/Kg twice a week), starting on day 7 post-injection of tumor cells. Tumor volume (A) was measured twice a week using a caliper. LN and lung metastatic burden (B) were measured using the IVIS image system and represented as fold over vehicle treated mice. Error bars represent s.e.m. of 2 experiments (n = 8 mice, vehicle group and n = 10, THX-B group). C-D) Similarly, tumor growth (C) was measured in mice subcutaneously injected with lung metastatic mouse melanoma cells (200.000) and treated with vehicle or THX-B in the same conditions as A) (n=4-5mice per condition). D) Percentage of lung lobules with melanoma metastasis in animals with flank tumors originated by injecting B16F10 cells. p values were calculated by two-tailed Student's t test. • Figure 2. NGFR inhibition by THX-B reduces melanoma spontaneous metastasis in immunodeficient models. Lung metastatic human melanoma cells (500.000) were injected subcutaneously into the flank of nude mice. […] A) Tumor growth was measured with a caliper twice a week. B) Quantification of the percentage of lung lobules with melanoma metastasis was analyzed measuring Luc expression of tumor loci with the IVIS system. p values were calculated by two-tailed Student's t test. • Figure 3. […] A) Tumor volume was measured using a caliper. […] Distal metastases were analyzed measuring luciferase expression in the lungs using IVIS system. Error bars represent s.e.m of 3 experiment (n = 12 mice, vehicle group, n = 12, antiPD-L1 group; n=8 antiPDL1 and THX-B group). p values were calculated by two-tailed Student's t test. • Figure 4. […] Quantification of LYVE+ area was performed with ImageJ software and was normalized to total LN area in each section. Error bars represent s.e.m of 1 experiment (n = 6 LNs, 3 whole sections analyzed per nodule). p values were calculated by two-tailed Student's t test. • Figure 6. […]

TNF-a = experiment: Molecular changes in diabetic voiding dysfunction model: TNF-a; type: in vivo, C57BL/6 female mice; conditions: compared with Dm
Procedure: (§3) Animal housing and treatments All experiments received the ethical approval from the Lady Davis Institute Ethics Board (No. 7859), Montreal, Canada. Housing and handling conformed with the Canadian Council for Animal Care (CCAC). One hundred and forty four 9-week-old C57BL/6 female mice were kept on a 12 h light/dark cycle with free access to food (standard Purina chow, Teklad Global, Wl, USA) and water. Diabetes was induced by i.p. injection of streptozotocin (60 mg/kg in citrate buffer, 10 mmol/l, pH 4.5 on 5 consecutive days) after 4-5 h fasting. Fasting serum glucose (FSG) was checked after 5-7 days using a glucometer (Contour next EZ, Bayer, ON, Canada) from the tail. FSG above 14 mmol/l was considered diabetic. Mice were divided into four groups without pre-considering their weight changes or glucose levels (for diabetic groups): control (42 mice); untreated diabetic (hereafter referred to as Dm; 42 mice); anti-proNGF mAb-treated diabetic mice (30 mice); and small molecule p75^NTR antagonist (THX-B)-treated diabetic mice (30 mice). […]
(§4) Without blinding, i.p. injections of the drug molecules or the vehicle (PBS) were given weekly for four weeks, starting after 2 weeks of diabetes confirmation. […] Body weight was measured weekly and FSG fortnightly for all groups. […]

proNGF/p75^NTR axis [4] = experiment: Fasting serum glucose and bladder weight/morphology after drug washout (Figure 7); type: in vivo, C57BL/6 female mice; conditions: after the 3 week washout period; compared with Dm
Procedure: (§5) • Figure 1. NGFR inhibition by THX-B reduces melanoma spontaneous metastasis. A-B) 200.000 lymph node metastatic mouse melanoma cells were subcutaneously in c57/BL6 mice. Animals were treated intra-peritoneally with THX-B (4 mg/Kg twice a week), starting on day 7 post-injection of tumor cells. Tumor volume (A) was measured twice a week using a caliper. LN and lung metastatic burden (B) were measured using the IVIS image system and represented as fold over vehicle treated mice. Error bars represent s.e.m. of 2 experiments (n = 8 mice, vehicle group and n = 10, THX-B group). C-D) Similarly, tumor growth (C) was measured in mice subcutaneously injected with lung metastatic mouse melanoma cells (200.000) and treated with vehicle or THX-B in the same conditions as A) (n=4-5mice per condition). D) Percentage of lung lobules with melanoma metastasis in animals with flank tumors originated by injecting B16F10 cells. p values were calculated by two-tailed Student's t test. • Figure 2. […] A) Tumor growth was measured with a caliper twice a week. B) Quantification of the percentage of lung lobules with melanoma metastasis was analyzed measuring Luc expression of tumor loci with the IVIS system. p values were calculated by two-tailed Student's t test. • Figure 3. […] A) Tumor volume was measured using a caliper. […] Distal metastases were analyzed measuring luciferase expression in the lungs using IVIS system. […]

proNGF/p75^NTR axis [5] = experiment: Voiding spot assay (VSA) in diabetic mice; type: in vivo, C57BL/6 female mice
Procedure: Voiding spot assay: For the voiding spot assay (VSA), mice were placed individually with access to food without water for 2 h. The cage was fitted with a chromatography paper, grade 3 mm CHR (Whatman, GE Healthcare, UK) covered by a fine metallic mesh (2-3 mm pore size). The urine spot pattern was assessed by imaging the chromatography paper with ultraviolet light using SynGene Bioimaging system (USA) connected to GeneSnap software (Version 7.02, USA) and analysed by ImageJ software (Version: 2.0.0-rc-66/1.52n, NIH, USA) using a calibration curve and Void Whizzard free software plugin for FIJI (distribution of ImageJ, Version: 2.0.0-rc-66/1.52n, NIH, USA). Mice were acquainted to the procedure once to get accustomed, then the experiment was done once to obtain the voiding data.
as §1, §2

proNGF/p75^NTR axis [6] = experiment: Cystometry in diabetic voiding dysfunction model; type: in vivo, C57BL/6 female mice; conditions: compared with Dm
Procedure: as §1, §2

[7] = Persistence in systemic circulation in vivo; conditions: read-out: estimated systemic circulation half-life in vivo
Text: In both the proNGF mAb and the THX-B treatments, the prolonged anatomical physiological effects on the bladder are likely to be due to a prolonged therapeutic effect rather than to the drugs remaining in circulation at therapeutic levels after a 3 week period, given that we have observed that anti-proNGF mAb is detectable in systemic circulation only for 2 weeks in previous studies.
as §3, with “diabetic.” for “diabetic. Mice were divided into four groups without pre-considering their weight changes or glucose levels (for diabetic groups): control (42 mice); untreated diabetic (hereafter referred to as Dm; 42 mice); anti-proNGF mAb-treated diabetic mice (30 mice); and small molecule p75^NTR antagonist (THX-B)-treated diabetic mice (30 mice).”

[8] = tested on: Lung metastatic human melanoma cells; experiment: Spontaneous metastasis model in immunodeficient mice, human melanoma cells injected subcutaneously (Figure 2); type: in vivo, nude mice; conditions: immunodeficient models; THX-B 4 mg/Kg intraperitoneal twice a week from day 7; vs vehicle
Procedure: as §5

B16F1-R2 cells = experiment: Lymph node lymphangiogenesis, LYVE-1 staining of inguinal LNs of animals with flank tumors (Figure 5); type: in vivo; conditions: 2.5 mg/Kg THX-B intra-peritoneally twice a week from day 7; sacrificed at 21 days
Procedure: as §5

proNGF/NGF = experiment: Molecular changes in diabetic voiding dysfunction model: proNGF/NGF; type: in vivo, C57BL/6 female mice; conditions: compared with Dm
Procedure: as §3, §4

[9] = THX-B 4 mg/Kg intra-peritoneally twice a week from day 7, vs vehicle
[10] = compared with Dm, week as printed in the cell

Compound: CC(C)NC(=O)N(C(=O)Cn1cnc2c1c(=O)n(C)c(=O)n2C)C(C)C [THX-B, 1,3-diisopropyl-1-[2-(1,3-dimethyl-2,6-dioxo-1,2,3,6-tetrahydro-purin-7-yl)-acetyl]-urea]
- Morphology: Collagen content (proNGF/p75^NTR axis [1]; compared with Dm): ↓
- Morphology: Detrusor (proNGF/p75^NTR axis [1]; compared with Dm): ↓
- Morphology: Mucosa (proNGF/p75^NTR axis [1]; compared with Dm): ↓
- Morphology: Overall thickness (proNGF/p75^NTR axis [1]; compared with Dm): ↓
- Bladder weight (proNGF/p75^NTR axis [1]; compared with Dm, week of treatment as printed in the cell): ↓ (week 2,4)
- morphology of the bladder (proNGF/p75^NTR axis [1]; following THX-B treatment, in spite of continuous hyperglycemia): improved
- Contractility: EFS (proNGF/p75^NTR axis [2]; Electric field stimulation): ↑ (week 2,4)
- Contractility: Carbachol (proNGF/p75^NTR axis [2]): ↑ (week 2,4)
- Contractility: KCI (proNGF/p75^NTR axis [2]): ↑ (week 2,4)
- organ distribution: lymph nodes ([3]; females, 20 hours after injection 4mg/Kg): can be detected
- detection levels ([3]; intraperitoneal injection 4mg/Kg, males and female mice, said to suggest a short half-life): dropped 1 hour after injection
- concentration at 8 h ([3]; mouse, lymph nodes, oral dose 50mg/Kg, 8 hours): 9 ng/mL
- concentration at 24 h ([3]; mouse, tissues except lymph nodes, oral dose 50mg/Kg, 24h, read-out: tissue distribution: concentration in all the tissues except the lymph nodes): 12 to 20 ng/mL
- half-life ([3]; oral gavage 10mg/Kg, compared with intraperitoneal injection): similar
- half-life ([3]; oral gavage 50mg/Kg): sustained over time
- melanoma spontaneous metastasis (mouse melanoma cells; Figure 1 title, THX-B 4 mg/Kg intra-peritoneally twice a week): reduces
- distal (lung) spontaneous metastasis (mouse melanoma cells; [9]): impaired
- local (lymph node) spontaneous metastasis (mouse melanoma cells; [9]): impaired
- Molecular changes: TNF-a (TNF-a): ↓↓
- Bladder weight (proNGF/p75^NTR axis [4]): persistent absence of bladder hypertrophy; also recorded: maintained a significant difference
- lower total voided volume compared with Dm (proNGF/p75^NTR axis [5]; after 2 weeks of treatment): 50%
- total voided volume (proNGF/p75^NTR axis [5]; after 2 weeks of treatment, 2 h VSA, Dm 802.5±123µl): 372 ± 73 µL
- VSA: Volume per spot (proNGF/p75^NTR axis [5]; compared with Dm): ⇔
- effects on voiding frequency, total voided volume and mean volume per micturition (proNGF/p75^NTR axis [5]; compared with Dm, except total voided volume for THX-B at 2 weeks): minimal effects
- VSA: Number of spots (proNGF/p75^NTR axis [5]; [10]): ↓ (week 2)
- VSA: Total volume (proNGF/p75^NTR axis [5]; [10]): ↓ (week 2)
- Cystometry: Spontaneous activity (proNGF/p75^NTR axis [6]): ⇔
- Cystometry: Bladder capacity (proNGF/p75^NTR axis [6]; week as printed in the cell): ↓ (week 4)
- Cystometry: Bladder compliance (proNGF/p75^NTR axis [6]; week as printed in the cell): ⇔
- Cystometry: ICI (proNGF/p75^NTR axis [6]; inter-contraction interval, week as printed in the cell): ↓ (week 4)
- half-life [7]: 6 to 8 h
- lung spontaneous metastasis [8]: reduce
- lymph node lymphangiogenesis (Lyve-1+ staining in inguinal lymph nodes) (B16F1-R2 cells): reduces; also recorded: decreased
- Molecular changes: proNGF/NGF (proNGF/NGF): ↓
